According to patent US20220048915A1 (SHANGHAI PHARMACEUTICALS HOLDING CO., LTD., priority 2018, published 2022):
Read-outs that look alike come from different tables or passages of the source.

Tests used:
Assay in all cases: In vitro inhibition of p38 kinase (LANCE Ultra TR-FRET)
Format in all cases: biochemical
p38α = p38α (Homo sapiens, UniProt Q16539)
p38β = p38β (Homo sapiens, UniProt Q15759)
p38γ = target: T1, p38γ (Homo sapiens, UniProt P53778)
T1 sequence (P53778 1-367): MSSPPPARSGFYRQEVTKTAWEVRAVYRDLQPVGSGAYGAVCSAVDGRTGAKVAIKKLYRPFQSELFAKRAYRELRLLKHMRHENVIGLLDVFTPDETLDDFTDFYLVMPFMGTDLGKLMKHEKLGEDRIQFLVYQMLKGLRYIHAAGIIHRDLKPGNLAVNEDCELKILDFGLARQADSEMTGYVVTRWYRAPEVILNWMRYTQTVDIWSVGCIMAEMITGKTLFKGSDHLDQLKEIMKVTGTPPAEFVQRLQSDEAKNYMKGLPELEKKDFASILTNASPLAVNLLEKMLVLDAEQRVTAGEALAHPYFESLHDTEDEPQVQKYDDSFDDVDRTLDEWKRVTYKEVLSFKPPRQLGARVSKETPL
Experimental: 10 mM of the storage solution of the test compound was taken and placed in a 96-well compound plate, and using DMSO for the compound at an initial concentration of 100×, which was then used as the first concentration and then carried out a 3-fold gradient dilution with DMSO for a total of 10 concentrations. After that, 1 μL of gradient dilutions were added to 19 μL of 1× reaction buffer to prepare 5× compound for later use. […] To the compound-free control well was added 2 μL of the following liquid: 19 μL of 1× reaction buffer with addition of 1 μL of DMSO. To the Min control well was added 2 μL of 250 mM EDTA.
1× of LANCE® Detection value Buffer was used to prepare a 2×Antibody for use, and the amount was 5 μL per well, at the same time 10 mM EDTA was prepared for later use. After the enzyme reaction was carried out for 30 minutes, 5 μL 10 mM EDTA was added to the 384-well plate and the reaction was carried out at room temperature for 5 minutes. Afterwards, 5 μL LANCE® Ultra Europium-anti-phospho-eIF4E-binding protein 1 (Thr37/46) was added to the 384-well plate and the reaction was carried out at room temperature for one hour.

[1] = read-out: Kinase in vitro IC50(nM) p38α
[2] = read-out: Kinase in vitro IC50(nM) p38β
[3] = read-out: Kinase in vitro IC50(nM) p38γ

p38β, sequence (Q15759 whole entry): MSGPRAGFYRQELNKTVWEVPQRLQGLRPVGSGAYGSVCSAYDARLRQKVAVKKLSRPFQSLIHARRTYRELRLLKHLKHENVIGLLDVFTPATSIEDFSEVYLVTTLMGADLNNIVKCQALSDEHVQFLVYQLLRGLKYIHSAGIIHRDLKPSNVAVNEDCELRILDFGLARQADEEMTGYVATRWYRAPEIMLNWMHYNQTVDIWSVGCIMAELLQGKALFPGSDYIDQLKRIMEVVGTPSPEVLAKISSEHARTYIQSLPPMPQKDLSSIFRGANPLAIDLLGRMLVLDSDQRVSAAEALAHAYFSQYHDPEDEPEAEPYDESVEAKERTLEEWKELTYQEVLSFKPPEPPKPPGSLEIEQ
p38α, sequence (Q16539 whole entry): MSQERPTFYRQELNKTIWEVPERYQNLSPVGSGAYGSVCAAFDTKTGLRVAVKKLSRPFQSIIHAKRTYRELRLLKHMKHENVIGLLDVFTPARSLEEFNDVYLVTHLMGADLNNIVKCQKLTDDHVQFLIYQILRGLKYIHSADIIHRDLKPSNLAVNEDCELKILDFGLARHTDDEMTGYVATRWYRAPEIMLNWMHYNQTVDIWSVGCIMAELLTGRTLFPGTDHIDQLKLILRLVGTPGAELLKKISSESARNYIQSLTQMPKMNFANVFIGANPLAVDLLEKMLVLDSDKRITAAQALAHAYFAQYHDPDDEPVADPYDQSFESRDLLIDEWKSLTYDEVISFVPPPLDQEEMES

IC50 (p38α; [1])	IC50 (p38β; [2])	IC50 (p38γ; [3])	Compound	IC50 (p38α)	IC50 (p38β)	IC50 (p38γ)
112 nM	301 nM	> 3330 nM	COc1ccc(Oc2ccc3c(-c4c(Cl)cccc4Cl)c(=O)ncn3n2)c(Cl)c1 [Compound I-9, 2-(2-chloro-4-methoxyphenoxy)-5-(2,6-dichlorophenyl)-6H-pyrimido[1,6-b]pyridazin-6-one]			
503 nM	2830 nM	> 3330 nM	O=c1ncn2nc(OC3C=CCCC3)ccc2c1-c1c(Cl)cccc1Cl (stereo not drawn) [Compound I-37, 2-(cyclohex-2-en-1-yloxy)-5-(2,6-dichlorophenyl)-6H-pyrimido[1,6-b]pyridazin-6-one]			
17.7 nM	117 nM	> 3330 nM	COC(=O)c1ccc(OC)c(-c2c(=O)ncn3nc(Oc4ccc(F)cc4F)ccc23)c1 [Compound I-55, methyl 3-[2-(2,4-difluorophenoxy)-6-oxo-pyrimido[1,6-b]pyridazin-5-yl]-4-methoxybenzoate]			
			O=c1ncn2nc(OC3CC(F)(F)C3)ccc2c1-c1c(Cl)cccc1Cl [Compound I-1, 5-(2,6-dichlorophenyl)-2-(3,3-difluorocyclobutoxy)-6H-pyrimido[1,6-b]pyridazin-6-one]	> 3330 nM	> 3330 nM	> 3330 nM
137 nM	1220 nM	> 3330 nM	Cc1ccc(Oc2ccc3c(-c4c(Cl)cccc4Cl)c(=O)ncn3n2)cc1F [Compound I-11, 5-(2,6-dichlorophenyl)-2-(3-fluoro-4-methylphenoxy)-6H-pyrimido[1,6-b]pyridazin-6-one]			
22.7 nM	614 nM	> 3330 nM	O=c1ncn2nc(Oc3ccc(F)cc3F)ccc2c1-c1c(F)cc(F)cc1F [Compound I-57, 5-(2,4,6-trifluorophenyl)-2-(2,4-difluorophenoxy)-6H-pyrimido[1,6-b]pyridazin-6-one]			
> 3330 nM	> 3330 nM	> 3330 nM	O=c1ncn2nc(OCC(F)F)ccc2c1-c1c(Cl)cccc1Cl [Compound I-8, 5-(2,6-dichlorophenyl)-2-(2,2-difluoroethoxy)-6H-pyrimido[1,6-b]pyridazin-6-one]			
49.8 nM	389 nM	> 3330 nM	Cc1cc(Cl)ccc1Oc1ccc2c(-c3c(Cl)cccc3Cl)c(=O)ncn2n1 [Compound I-34, 2-(4-chloro-2-methylphenoxy)-5-(2,6-dichlorophenyl)-6H-pyrimido[1,6-b]pyridazin-6-one]			
24 nM	470 nM	> 3330 nM	O=c1ncn2nc(Oc3ccc(Cl)cc3)ccc2c1-c1c(Cl)cccc1Cl [Compound I-33]			
38.8 nM	> 3330 nM	> 3330 nM	Cc1cc(F)ccc1Oc1ccc2c(-c3c(Cl)cccc3Cl)c(=O)ncn2n1 [Compound I-28, 5-(2,6-dichlorophenyl)-2-(4-fluoro-2-methylphenoxy)-6H-pyrimido[1,6-b]pyridazin-6-one]			
1350 nM	> 3330 nM	> 3330 nM	O=c1ncn2nc(NC3CC(F)(F)C3)ccc2c1-c1c(Cl)cccc1Cl [Compound I-14, 5-(2,6-dichlorophenyl)-2-((3,3-difluorocyclobutyl)amino)-6H-pyrimido[1,6-b]pyridazin-6-one]			
11.7 nM	32.7 nM	> 3330 nM	O=c1ncn2nc(Oc3ccc(F)cc3F)c(N3CCOCC3)cc2c1-c1c(Cl)cccc1Cl [Compound I-61, 5-(2,6-dichlorophenyl)-2-(2,4-difluorophenoxy)-3-morpholinyl-6H-pyrimido[1,6-b]pyridazin-6-one]			
137 nM	> 3330 nM	> 3330 nM	O=c1ncn2nc(Oc3ccc(F)cc3F)ccc2c1-c1ccc(Cl)c(Cl)c1 [Compound I-58, 5-(3,4-dichlorophenyl)-2-(2,4-difluorophenoxy)-6H-pyrimido[1,6-b]pyridazin-6-one]			
81.3 nM	1220 nM	> 3330 nM	O=c1ncn2nc(Oc3ccc(F)cc3F)c(-c3ccncc3)cc2c1-c1c(Cl)cccc1Cl [Compound I-59, 5-(2,6-dichlorophenyl)-2-(2,4-difluorophenoxy)-3-(pyridin-4-yl)-6H-pyrimido[1,6-b]pyridazin-6-one]			
1980 nM	> 3330 nM	> 3330 nM	O=c1ncn2nc(Oc3cncc(F)c3)ccc2c1-c1c(Cl)cccc1Cl [Compound I-24, 5-(2,6-dichlorophenyl)-2-((5-fluoropyridin-3-yl)oxy)-6H-pyrimido[1,6-b]pyridazin-6-one]			
54.2 nM	947 nM	> 3330 nM	O=c1ncn2nc(Oc3ccc(F)cc3F)ccc2c1-c1cccc(Cl)c1Cl [Compound I-52, 5-(2,3-dichlorophenyl)-2-(2,4-difluorophenoxy)-6H-pyrimido[1,6-b]pyridazin-6-one]			
151 nM	1430 nM	> 3330 nM	O=c1ncn2nc(Oc3cccc(F)c3)ccc2c1-c1c(Cl)cccc1Cl [Compound I-25, 5-(2,6-dichlorophenyl)-2-(3-fluorophenoxy)-6H-pyrimido[1,6-b]pyridazin-6-one]			
> 3330 nM	> 3330 nM	> 3330 nM	CC(Oc1ccc2c(-c3c(Cl)cccc3Cl)c(=O)ncn2n1)c1ccc(F)cc1F (stereo not drawn) [Compound I-41, 5-(2,6-dichlorophenyl)-2-(1-(2,4-difluorophenyl)ethoxy)-6H-pyrimido[1,6-b]pyridazin-6-one]			
> 3330 nM	> 3330 nM	> 3330 nM	O=c1ncn2nc(OCC(F)(F)F)ccc2c1-c1c(Cl)cccc1Cl [Compound I-13, 5-(2,6-dichlorophenyl)-2-(2,2,2-trifluoroethoxy)-6H-pyrimido[1,6-b]pyridazin-6-one]			
19.6 nM	479 nM	> 3330 nM	O=c1ncn2nc(Oc3ccc(F)cc3F)ccc2c1-c1ccc(Cl)cc1Cl [Compound I-56, 5-(2,4-dichlorophenyl)-2-(2,4-difluorophenoxy)-6H-pyrimido[1,6-b]pyridazin-6-one]			
17.5 nM	256 nM	> 3330 nM	CNC(=O)c1ccc(Cl)c(-c2c(=O)ncn3nc(Oc4ccc(F)cc4F)ccc23)c1 [Compound I-51, 4-chloro-3-(2-(2,4-difluorophenoxy)-6-oxo-6H-pyrimido[1,6-b]pyridazin-5-yl)-N-methylbenzamide]			
1680 nM	> 3330 nM	> 3330 nM	CCOc1ccc2c(-c3c(Cl)cccc3Cl)c(=O)ncn2n1 [Compound I-7, 5-(2,6-dichlorophenyl)-2-ethoxy-6H-pyrimido[1,6-b]pyridazin-6-one]			
> 3330 nM	> 3330 nM	> 3330 nM	O=c1ncn2nc(OC3CCOC3)ccc2c1-c1c(Cl)cccc1Cl (stereo not drawn) [Compound I-3, 5-(2,6-dichlorophenyl)-2-((tetrahydrofuran-3-yl)oxy)-6H-pyrimido[1,6-b]pyridazin-6-one]			
> 3330 nM	> 3330 nM	> 3330 nM	N#Cc1ccc(Oc2ccc3c(-c4c(Cl)cccc4Cl)c(=O)ncn3n2)cc1 [Compound I-26, 4-((5-(2,6-dichlorophenyl)-6-oxo-6H-pyrimido[1,6-b]pyridazin-2-yl)oxy)benzonitrile]			
228 nM	686 nM	> 3330 nM	O=c1ncn2nc(OC3CCCC=C3Cl)ccc2c1-c1c(Cl)cccc1Cl (stereo not drawn) [Compound I-42, 2-((2-chlorocyclohex-2-en-1-yl)oxy)-5-(2,6-dichlorophenyl)-6H-pyrimido[1,6-b]pyridazin-6-one]			
14.1 nM	213 nM	> 3330 nM	O=c1ncn2nc(Oc3ccc(F)cc3F)ccc2c1-c1c(F)cccc1F [Compound I-49, 2-(2,4-difluorophenoxy)-5-(2,6-difluorophenyl)-6H-pyrimido[1,6-b]pyridazin-6-one]			
31 nM	635 nM	> 3330 nM	O=c1ncn2nc(Oc3ccc(F)cc3F)ccc2c1C1=CCCCC1 [Compound I-44, 5-(cyclohex-1-en-1-yl)-2-(2,4-difluorophenoxy)-6H-pyrimido[1,6-b]pyridazin-6-one]			
35.4 nM	643 nM	> 3330 nM	Cc1cccc(C)c1-c1c(=O)ncn2nc(Oc3ccc(F)cc3F)ccc12 [Compound I-45, 2-(2,4-difluorophenoxy)-5-(2,6-dimethylphenyl)-6H-pyrimido[1,6-b]pyridazin-6-one]			
414 nM	2160 nM	> 3330 nM	O=c1ncn2nc(OC3CC=CC3)ccc2c1-c1c(Cl)cccc1Cl [Compound I-38, 2-(cyclopent-3-en-1-yloxy)-5-(2,6-dichlorophenyl)-6H-pyrimido[1,6-b]pyridazin-6-one]			
